Measurements published in patent US8685924B2, “Preventives/remedies for stress urinary incontinence and method of screening the same” (Takeda Pharmaceutical Company Limited, priority 2004, dated 2014).

Experiments:
Type in all cases: in vivo, rat
[1] = test system: urethane-anesthetized female rats; experiment: Leak point pressure by abdominal wall electrostimulation, rats with nerve to iliococcygeus/pubococcygeus muscle transected on one side (Example 2); settings: for leak point pressure after drug administration / leak point pressure increase / leak point pressure before drug administration: i.v., mean ± SEM; for leak point pressure before drug administration: baseline
Description: SD female rats (body weight 180-350 g) were anesthetized with urethane (Wako Pure Chemical Industries, Ltd.), and the spinal cord was cut at T8-9 level to eliminate the reflex voiding. In addition, the nerve to the iliococcygeus muscle/pubococcygeus muscle on the one side was transected. During operation, halothane (Takeda Pharmaceutical Company Limited) anesthesia was added when necessary. A catheter (PE-90, Clay Adams) was inserted into the bladder and secured with a ligature, and the incised part of each of the abdominal muscle and skin was closed with sutures. The abdominal skin near the diaphragm was incised at two left and right positions to newly expose the abdominal muscle. An Evans Blue dye (Merck) solution was injected into the bladder, and the bladder volume was adjusted to 0.2-0.3 ml. The bladder catheter was connected to a pressure transducer, and the signals of the transducer were sent to a computer via an amplifier (blood pressure amplification unit AP-641G; NIHON KOHDEN) and an analog-to-digital converter (BIOPAC; MP100), and recorded on a hard disc. The data were analyzed on a computer using software (BIOPAC; AcqKnowledge). The exposed abdominal muscle was electrostimulated using an electrostimulator (SEN-3301; NIHON KODEN) and an isolator (SS-202J; NIHON KODEN), and the presence or absence of incontinence from the urethral orifice was observed. The electrostimulation was applied at a voltage of 3-50 V, duration of 0.05-0.5 milisec, and frequency 50 Hz for 1 sec, thereby gradually increasing the intravesical pressure. The peak intravesical pressure during stimulation of the abdominal wall was measured and, of the trials with observed incontinence, the lowest peak intravesical pressure was defined as the leak point pressure. The leak point pressure was compared before and after the duloxetine and midodrine administration. Duloxetine was dissolved in […] (DMA)/polyethylene glycol 400 (PEG400) (1:1), and intravenously administered at 0.5 ml/kg. Midodrine (hydrochloride, Sigma) was dissolved in saline and intravenously administered at 1 ml/kg.

[2] = test system: urethane-anesthetized female rats; experiment: Leak point pressure by abdominal wall-electrically stimulating method, serotonin 5-HT receptor agonists (Example 3); settings: for leak point pressure after drug administration / leak point pressure increase / leak point pressure before drug administration: i.v., mean ± SEM; for leak point pressure before drug administration: baseline
Description: (§1) SD female rats (body weight 180-350 g) were anesthetized with urethane (Wako Pure Chemical Industries, Ltd.), and the spinal cord was transected at T8-9 level to eliminate the reflex voiding. In addition, the nerve to the iliococcygeus muscle/pubococcygeus muscle on the one side was transected. During operation, halothane (Takeda Pharmaceutical Company Limited) anesthesia was added when necessary. A catheter (PE-90, Clay Adams) was inserted into the bladder and secured with a ligature, and the incised part of each of the abdominal muscle and skin was closed with sutures. The abdominal skin near the diaphragm was incised at two left and right positions to newly expose the abdominal muscle. An Evans Blue dye (Merck) solution was injected into the bladder, and the bladder volume was adjusted to 0.2-0.3 ml. The bladder catheter was connected to a pressure transducer, and the signals of the transducer were sent to a computer via an amplifier (blood pressure amplification unit AP-641G; NIHON KOHDEN) and an analog-to-digital converter (BIOPAC; MP100), and recorded on a hard disc. The data were analyzed on a computer using software (BIOPAC; AcqKnowledge). The exposed abdominal muscle was electrostimulated using an electrostimulator (SEN-3301; NIHON KODEN) and an isolator (SS-202J; NIHON KODEN), and the presence or absence of incontinence from the meatus urethra was observed. The electrostimulation was applied at a voltage of 2.5-50 V, duration of 0.5 milisec, and frequency 50 Hz for 1 sec, thereby gradually increasing the intravesical pressure. The peak intravesical pressure during stimulation of the abdominal wall was measured and, of the trials with observed incontinence, the lowest peak intravesical pressure was defined as the leak point pressure. Serotonin 5-HT receptor agonist, WAY-161503 (5-HT2C receptor agonist), WAY-163909 (5-HT2C receptor agonist), DOI (5-HT2A/2B/2C receptor agonist), mCPP (5-HT2B/2C receptor partial agonist), eltoprazine (5-HT1A/1B/2C receptor partial agonist), 8-OH-DPAT (5-HT1A receptor agonist), sumatryptan (5-HT1B/1D receptor agonist) and BW723C86 (5-HT2B receptor agonist) were intravenously administered, and the leak point pressure was compared before and after the administration. DOI, mCPP and eltoprazine were dissolved in saline, and other drugs were dissolved in DMA/PEG400 (1:1), and they were intravenously administered at 1 ml/kg and 0.5 mg/kg, respectively. Depending on the experiment, RS-102221 (serotonin 5-HT2C receptor antagonist) or SB221284 (serotonin 5-HT2B/2C receptor antagonist) was intravenously administered 5 min before WAY-161503 or WAY-163909 administration, and an antagonistic effect against the WAY-161503 or WAY-163909-induced increment of the leak point pressure was examined. RS-102221 and SB221284 were both dissolved in DMA/PEG400 (1:1) and intravenously administered at 0.5 ml/kg.

[3] = test system: urethane-anesthetized female rats; experiment: Antagonism of the leak point pressure increase by WAY-161503 / WAY-163909, abdominal wall-electrically stimulating method (Example 3); settings: agonist 0.3 mg/kg, i.v., antagonist: solvent, mean ± SEM
Description: as §1

[4] = test system: urethane-anesthetized female rats; experiment: Leak point pressure by direct compressing of the bladder (Example 4); settings: for leak point pressure after drug administration / leak point pressure increase / leak point pressure before drug administration: i.v., mean ± SEM; for leak point pressure after drug administration: 20 min later; for leak point pressure before drug administration: baseline
Description: (§2) SD female rats (body weight 180-350 g) were anesthetized with urethane (Wako Pure Chemical Industries, Ltd.), and halothane (Takeda Pharmaceutical Company Limited) anesthesia was added when necessary during operation.
(§3) The spinal cord was transected at T8-9 level to eliminate the reflex voiding. The lower abdomen was incised in the median line, a catheter for intravesical pressure measurement (PE-90, Clay Adams) was inserted into the bladder and secured with a ligature, and the intravesical pressure was measured via a pressure transducer. Urine was emptized in advance by bilaterally pressing the bladder with two swabs, and a 0.1% Evans blue (Merck) solution (0.4 mL) was injected into the bladder. The bladder was gradually compressed bilaterally with two swabs, and the intravesical pressure upon saline leakage from the urethral orifice was measured and defined as a leak point pressure. The measurement of the leak point pressure was repeated, and the average value of the final five stable measures was taken as the value before drug administration. Thereafter, the drug was intravenously administered, the leak point pressure was measured again 20 min later, and the value after the drug administration was determined. DOI, mCPP and eltoprazine were dissolved in saline, and other drugs were dissolved in DMA/PEG400 (1:1), and intravenously administered at 1 ml/kg and 0.5 mg/kg, respectively. Depending on the experiment, RS-102221 or SB221284 (showing serotonin 5-HT2C receptor antagonist activity) was administered, 5 min later, WAY-161503 or WAY-163909 was administered, leak point pressure was measured 10 min later, and a competitive assay with the action of WAY-161503 or WAY-163909 was performed. RS-102221 and SB221284 were both dissolved in DMA/PEG400 (1:1), and intravenously administered at 0.5 ml/kg.

[5] = test system: urethane-anesthetized female rats; experiment: Antagonism of the leak point pressure increase by WAY-161503 / WAY-163909, direct bladder compression method (Example 4); settings: agonist 0.3 mg/kg, i.v., antagonist: solvent, mean ± SEM
Description: as §2, §3

[6] = test system: urethane-anesthetized female rats; experiment: Leak point pressure by intravesical pressure-clamp method (Example 6); settings: for leak point pressure after drug administration / leak point pressure before drug administration: i.v., mean ± SEM; for leak point pressure after drug administration: 10 min later; for leak point pressure before drug administration: baseline
Description: SD female rats (body weight 180-350 g) were anesthetized with urethane (Wako Pure Chemical Industries, Ltd.), and the spinal cord was transected at T8-9 level to eliminate the reflex voiding.
Halothane (Takeda Pharmaceutical Company Limited) anesthesia was added when necessary during operation. After laparotomy, the bladder neck was tied with a suture thread and then a catheter (PE-90, Clay Adams) was inserted into the bladder and secured with a ligature. The other end of the bladder catheter was connected to a pressure transducer and saline storage reservoir (60 ml syringe) via a three-way cock.
Changes in the intravesical pressure measured by a transducer were input in a computer via an amplifier (blood pressure amplification unit AP-641G; NIHON KODEN) and an analog-to-digital cinverter (MP-100; biopack) and recorded on a hard disc. The intravesical pressure was raised for 90 sec by setting the saline storage reservoir at a given height, and the presence or absence of saline leakage from the urethral orifice was observed. The intravesical pressure was raised every 2.5 cmH2O and, after 90 sec observation period, the intravesical pressure was once returned to 0 cmH2O, after which the next step was performed. The intravesical pressure at which the saline leakage from the urethral orifice was observed was taken as the leak point pressure. The measurement of the leak point pressure was repeated and the average of the final three measures was taken as the value before the drug administration. The drug was intravenously administered, and the leak point pressure was measured again 10 min later. The drug was dissolved in DMA-PEG400 (1:1), and administered at 0.5 ml/kg.

## COc1ccc(OC)c(C(O)CNC(=O)CN)c1 (centres unmarked) [midodrine]
[1]; 3 mg/kg
  leak point pressure after drug administration: 39.5 ± 7.5 cmH2O
  leak point pressure increase: 3.3 ± 4.0 cmH2O
[1]; 10 mg/kg
  leak point pressure after drug administration: 45.1 ± 3.8 cmH2O
  leak point pressure increase: 6.1 ± 1.4 cmH2O
[1]; dose group 3 mg/kg
  leak point pressure before drug administration: 36.2 ± 4.8 cmH2O
[1]; dose group 10 mg/kg
  leak point pressure before drug administration: 38.9 ± 4.5 cmH2O
[1]; intravenously administered
  effect on leak point pressure, comparison before and after administration: significant increase in the leak point pressure

## c1cc2c3c(c1)[C@H]1CCC[C@H]1N3CCNC2 [WAY-163909]
[2]; 0.03 mg/kg
  leak point pressure after drug administration: 43.0 ± 6.3 cmH2O
  leak point pressure increase: 3.5 ± 3.1 cmH2O
[2]; 0.1 mg/kg
  leak point pressure after drug administration: 55.5 ± 1.8 cmH2O
  leak point pressure increase: 11.1 ± 3.0 cmH2O
[2]; 0.3 mg/kg
  leak point pressure after drug administration: 55.9 ± 8.5 cmH2O
  leak point pressure increase: 14.4 ± 3.9 cmH2O
[2]; 1 mg/kg
  leak point pressure after drug administration: 67.1 ± 5.2 cmH2O
  leak point pressure increase: 24.0 ± 3.1 cmH2O
[2]; dose group 0.03 mg/kg
  leak point pressure before drug administration: 39.5 ± 4.3 cmH2O
[2]; dose group 0.1 mg/kg
  leak point pressure before drug administration: 44.4 ± 4.5 cmH2O
[2]; dose group 0.3 mg/kg
  leak point pressure before drug administration: 41.6 ± 6.0 cmH2O
[2]; dose group 1 mg/kg
  leak point pressure before drug administration: 43.1 ± 3.4 cmH2O
[2]; intravenous administration
  dose at which a significant effect on the leak point pressure was afforded: not less than 0.1 mg/kg
  effect on leak point pressure: dose-dependently increased the leak point pressure
[3]
  leak point pressure after drug administration: 57.6 ± 4.5 cmH2O
  leak point pressure increase: 13.7 ± 2.2 cmH2O
[3]; baseline
  leak point pressure before drug administration: 43.9 ± 4.3 cmH2O
[4]; 0.03 mg/kg
  leak point pressure after drug administration: 73.3 ± 3.9 cmH2O
  leak point pressure increase: 6.6 ± 2.2 cmH2O
[4]; 0.1 mg/kg
  leak point pressure after drug administration: 76.0 ± 2.7 cmH2O
  leak point pressure increase: 11.8 ± 2.0 cmH2O
[4]; 0.3 mg/kg
  leak point pressure after drug administration: 69.9 ± 3.5 cmH2O
  leak point pressure increase: 17.0 ± 1.8 cmH2O
[4]; 1 mg/kg
  leak point pressure after drug administration: 78.7 ± 5.7 cmH2O
  leak point pressure increase: 20.4 ± 4.0 cmH2O
[4]; 3 mg/kg
  leak point pressure after drug administration: 78.7 ± 4.7 cmH2O
  leak point pressure increase: 26.0 ± 3.5 cmH2O
[4]; dose group 0.03 mg/kg
  leak point pressure before drug administration: 66.6 ± 5.1 cmH2O
[4]; dose group 0.1 mg/kg
  leak point pressure before drug administration: 64.2 ± 1.3 cmH2O
[4]; dose group 0.3 mg/kg
  leak point pressure before drug administration: 52.9 ± 3.6 cmH2O
[4]; dose group 1 mg/kg
  leak point pressure before drug administration: 58.4 ± 2.3 cmH2O
[4]; dose group 3 mg/kg
  leak point pressure before drug administration: 52.7 ± 1.4 cmH2O
[4]; intravenous administration
  effect on leak point pressure: dose-dependently increased the leak point pressure
[5]
  leak point pressure after drug administration: 77.6 ± 3.8 cmH2O
  leak point pressure increase: 15.0 ± 1.1 cmH2O
[5]; baseline
  leak point pressure before drug administration: 62.6 ± 4.2 cmH2O

## C[C@]12CCC(=O)C[C@@H]1CC[C@@H]1[C@@H]2CC[C@]2(C)[C@@H](O)CC[C@@H]12 [DHT, dihydrotestosterone]
[6]; 0.3 mg/kg
  leak point pressure after drug administration: 35.5 ± 3.9 cmH2O
[6]; 1 mg/kg
  leak point pressure after drug administration: 41.1 ± 3.4 cmH2O
[6]; 3 mg/kg
  leak point pressure after drug administration: 36.9 ± 2.1 cmH2O
[6]; dose group 0.3 mg/kg
  leak point pressure before drug administration: 32.1 ± 3.9 cmH2O
[6]; dose group 1 mg/kg
  leak point pressure before drug administration: 35.7 ± 3.1 cmH2O
[6]; dose group 3 mg/kg
  leak point pressure before drug administration: 30.5 ± 2.2 cmH2O
[6]; intravesical pressure-clamp method
  effect on leak point pressure: increased the leak point pressure
